Source: patent US10954214B2 (Janssen Pharmaceutica NV, priority 2016, dated 2021)

What was measured:
[1] = biological target: full-length MALT1 protein (Strep-MALT1(1-824)-His) (Homo sapiens (Human), UniProt Q9UDY8); assay: MALT1 Biochemical Protease Assay (Ac-LRSR-AMC substrate); settings: 10 nM FL MALT1, 200 μM Ac-LRSR-AMC, 4 h at RT; read-out: MALT1_Biochemical activity (Ac-LRSR-amc) IC50
How it was run: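 Full-length MALT1 pre-incubated with compounds (30 μM to 0.5 nM, 11 threefold steps) for 50 min at RT. After Ac-LRSR-AMC was added, the reaction ran 4 h at RT and AMC fluorescence was read. IC50 and Hill slope from curve fitting against no-enzyme and no-compound controls.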

[2] = test system: IL6 secretion by OCI-LY3 ABC-DLBCL cells; assay: Human IL6 Mesoscale assay (OCI-LY3); assay type: cell-based; settings: Homo sapiens, 24 h
How it was run: (§1)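 After 24 h at 37 °C with test compounds (15 μM down to 58.6 nM, 9 twofold steps, 0.3% DMSO), IL6 and IL10 secreted by 100,000 OCI-LY3 or TMD8 cells per well were measured in supernatants with a Mesoscale immunoassay. Data were scaled between DMSO wells (high) and RN486 treatment (low).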

[3] = test system: IL10 secretion by OCI-LY3 ABC-DLBCL cells; assay: Human IL10 Mesoscale assay (OCI-LY3); assay type: cell-based; settings: Homo sapiens, 24 h
How it was run: as §1

full-length MALT1 protein (Strep-MALT1(1-824)-His), sequence (Q9UDY8 whole entry): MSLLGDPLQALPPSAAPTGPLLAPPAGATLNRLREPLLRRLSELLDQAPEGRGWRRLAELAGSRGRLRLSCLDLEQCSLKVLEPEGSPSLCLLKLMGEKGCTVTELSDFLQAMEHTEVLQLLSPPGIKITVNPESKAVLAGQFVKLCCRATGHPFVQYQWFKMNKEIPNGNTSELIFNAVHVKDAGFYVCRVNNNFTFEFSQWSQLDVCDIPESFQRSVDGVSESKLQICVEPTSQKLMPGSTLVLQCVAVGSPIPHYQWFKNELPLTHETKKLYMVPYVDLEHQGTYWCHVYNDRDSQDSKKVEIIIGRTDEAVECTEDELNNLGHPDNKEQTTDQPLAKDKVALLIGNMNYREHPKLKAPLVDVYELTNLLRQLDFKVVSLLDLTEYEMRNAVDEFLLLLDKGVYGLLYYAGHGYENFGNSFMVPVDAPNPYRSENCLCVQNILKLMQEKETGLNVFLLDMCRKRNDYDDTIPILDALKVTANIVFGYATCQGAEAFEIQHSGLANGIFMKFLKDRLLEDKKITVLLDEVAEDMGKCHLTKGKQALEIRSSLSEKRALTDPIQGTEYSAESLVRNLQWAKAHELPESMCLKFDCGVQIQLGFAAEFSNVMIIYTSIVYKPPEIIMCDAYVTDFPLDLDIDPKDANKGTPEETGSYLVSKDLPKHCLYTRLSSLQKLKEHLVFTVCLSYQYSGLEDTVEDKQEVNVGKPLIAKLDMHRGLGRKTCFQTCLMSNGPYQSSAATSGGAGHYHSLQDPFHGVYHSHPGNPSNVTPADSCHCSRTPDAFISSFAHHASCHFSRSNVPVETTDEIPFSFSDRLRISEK

SMILES	IC50 [1] [nM]	IC50 [2] [nM]	IC50 [3] [nM]
N#Cc1cc(NC(=O)c2cnn(-c3ccnc4nccn34)c2C(F)(F)F)cnc1-n1nccn1 [Cpd 250, N-(5-cyano-6-(2H-1,2,3-triazol-2-yl)pyridin-3-yl)-1-(imidazo[1,2-a]pyrimidin-5-yl)-5-(trifluoromethyl)-1H-pyrazole-4-carboxamide]	316	269	407
Cc1cnn(-c2nc(C)c(NC(=O)c3cnn(-c4cccc5c(=O)[nH]ccc45)c3C(F)(F)F)cc2Cl)n1 [Cpd 359, N-(5-chloro-2-methyl-6-(4-methyl-2H-1,2,3-triazol-2-yl)pyridin-3-yl)-1-(1-oxo-1,2-dihydroisoquinolin-5-yl)-5-(trifluoromethyl)-1H-pyrazole-4-carboxamide]	28	98	91
COC(=O)c1ncc(NC(=O)c2cnn(-c3cccc4c(=O)[nH]ccc34)c2C(F)(F)F)cc1Cl [Cpd 355, methyl 3-chloro-5-(1-(1-oxo-1,2-dihydroisoquinolin-5-yl)-5-(trifluoromethyl)-1H-pyrazole-4-carboxamido)picolinate]	10	912	407
O=C(Nc1ccncc1)c1cnn(-c2cccc3c(=O)[nH]ccc23)c1C(F)(F)F [Cpd 349, 1-(1-oxo-1,2-dihydroisoquinolin-5-yl)-N-(pyridin-4-yl)-5-(trifluoromethyl)-1H-pyrazole-4-carboxamide]	13500	79	60
CN(C=O)Cc1ncc(-n2ncc(C(=O)Nc3cnc(-n4nccn4)c(Cl)c3)c2C(F)(F)F)c2ccccc12 [Cpd 373, N-(5-chloro-6-(2H-1,2,3-triazol-2-yl)pyridin-3-yl)-1-(1-((N-methylformamido)methyl)isoquinolin-4-yl)-5-(trifluoromethyl)-1H-pyrazole-4-carboxamide]	138	17	12
Cc1nc(-n2nccn2)c(Cl)cc1NC(=O)c1cnn(-c2cncc3sccc23)c1C(F)(F)F [Cpd 321, N-(5-chloro-2-methyl-6-(2H-1,2,3-triazol-2-yl)pyridin-3-yl)-1-(thieno[2,3-c]pyridin-4-yl)-5-(trifluoromethyl)-1H-pyrazole-4-carboxamide]	21	66	49
Cc1cc2nccc(-n3ncc(C(=O)Nc4cnc(-n5nccn5)c(C#N)c4)c3C(F)(F)F)c2s1 [Cpd 232, N-(5-cyano-6-(2H-1,2,3-triazol-2-yl)pyridin-3-yl)-1-(2-methylthieno[3,2-b]pyridin-7-yl)-5-(trifluoromethyl)-1H-pyrazole-4-carboxamide]	891	145	182
N#Cc1ncc(NC(=O)c2cnn(-c3cccc4c(=O)[nH]ccc34)c2C(F)(F)F)cc1C(F)(F)F [Cpd 354, N-(6-cyano-5-(trifluoromethyl)pyridin-3-yl)-1-(1-oxo-1,2-dihydroisoquinolin-5-yl)-5-(trifluoromethyl)-1H-pyrazole-4-carboxamide]	52	457	437
O=C(Nc1cnc(-n2ccnn2)c(Br)c1)c1cnn(-c2cccc3ncccc23)c1C(F)(F)F [Cpd 287, N-(5-bromo-6-(1H-1,2,3-triazol-1-yl)pyridin-3-yl)-1-(quinolin-5-yl)-5-(trifluoromethyl)-1H-pyrazole-4-carboxamide]	95	229	234
N#Cc1cc(NC(=O)c2cnn(-c3ncnc4ccccc34)c2C(F)(F)F)cnc1-n1nccn1 [Cpd 296, N-(5-cyano-6-(2H-1,2,3-triazol-2-yl)pyridin-3-yl)-1-(quinazolin-4-yl)-5-(trifluoromethyl)-1H-pyrazole-4-carboxamide]	72	182	69
CN(C)C(=O)c1ncc(NC(=O)c2cnn(-c3cccc4c(=O)[nH]ccc34)c2C(F)(F)F)cc1Cl [Cpd 351, 3-chloro-N,N-dimethyl-5-(1-(1-oxo-1,2-dihydroisoquinolin-5-yl)-5-(trifluoromethyl)-1H-pyrazole-4-carboxamido)picolinamide]	68	78	46
Cn1nc(-c2ncc(NC(=O)c3cnn(-c4cccc5ncccc45)c3C(F)(F)F)cc2C#N)cc1C(=O)O [Cpd 255, 3-(3-cyano-5-(1-(quinolin-5-yl)-5-(trifluoromethyl)-1H-pyrazole-4-carboxamido)pyridin-2-yl)-1-methyl-1H-pyrazole-5-carboxylic acid]	275	59	41
N#Cc1cc(NC(=O)c2cnn(-c3ccnc4cccnc34)c2C(F)(F)F)cnc1-n1nccn1 [Cpd 269, N-(5-cyano-6-(2H-1,2,3-triazol-2-yl)pyridin-3-yl)-1-(1,5-naphthyridin-4-yl)-5-(trifluoromethyl)-1H-pyrazole-4-carboxamide]	155	83	85
O=C(Nc1cnc(-n2nnc3cnccc32)c(Cl)c1)c1cnn(-c2cccc3ncccc23)c1C(F)(F)F [Cpd 163, N-(6-(1H-[1,2,3]triazolo[4,5-c]pyridin-1-yl)-5-chloropyridin-3-yl)-1-(quinolin-5-yl)-5-(trifluoromethyl)-1H-pyrazole-4-carboxamide]	224	95	71
N#Cc1cc(NC(=O)c2cnn(-c3ccnc4cn[nH]c34)c2C(F)(F)F)cnc1-n1nccn1 [Cpd 262, N-(5-cyano-6-(2H-1,2,3-triazol-2-yl)pyridin-3-yl)-1-(1H-pyrazolo[4,3-b]pyridin-7-yl)-5-(trifluoromethyl)-1H-pyrazole-4-carboxamide]	191	182	129

Results, then the compound that gave them:

IC50 [1] [nM]	IC50 [2] [nM]	IC50 [3] [nM]	SMILES
501	309	339	Nc1ccc2c(-n3ncc(C(=O)Nc4cnc(-n5nccn5)c(Cl)c4)c3C(F)(F)F)cccc2n1 [Cpd 331, 1-(2-aminoquinolin-5-yl)-N-(5-chloro-6-(2H-1,2,3-triazol-2-yl)pyridin-3-yl)-5-(trifluoromethyl)-1H-pyrazole-4-carboxamide]
19	123	126	Cc1nc(-n2nccn2)c(Cl)cc1NC(=O)c1cnn(-c2cc(=O)[nH]c3ccccc23)c1C(F)(F)F [Cpd 358, N-(5-chloro-2-methyl-6-(2H-1,2,3-triazol-2-yl)pyridin-3-yl)-1-(2-oxo-1,2-dihydroquinolin-4-yl)-5-(trifluoromethyl)-1H-pyrazole-4-carboxamide]
170	79	81	O=C(Nc1cnc(-n2nccn2)c(Cl)c1)c1cnn(-c2cnc(C3CC3)c3sccc23)c1C(F)(F)F [Cpd 435, N-(5-chloro-6-(2H-1,2,3-triazol-2-yl)pyridin-3-yl)-1-(7-cyclopropylthieno[2,3-c]pyridin-4-yl)-5-(trifluoromethyl)-1H-pyrazole-4-carboxamide]
22	1780	912	N#Cc1cc(-n2ncc(C(=O)Nc3cnc(-n4nccn4)c(Cl)c3)c2C(F)(F)F)c2ccccc2n1 [Cpd 412, N-(5-chloro-6-(2H-1,2,3-triazol-2-yl)pyridin-3-yl)-1-(2-cyanoquinolin-4-yl)-5-(trifluoromethyl)-1H-pyrazole-4-carboxamide]
55	646	794	CNc1ncc(-n2ncc(C(=O)Nc3cnc(-n4nccn4)c(C#N)c3)c2C(F)(F)F)c2cccc(F)c12 [Cpd 325, N-(5-cyano-6-(2H-1,2,3-triazol-2-yl)pyridin-3-yl)-1-(8-fluoro-1-(methylamino)isoquinolin-4-yl)-5-(trifluoromethyl)-1H-pyrazole-4-carboxamide]
79	151	115	N#Cc1cc(NC(=O)c2cnn(-c3ncnc4occc34)c2C(F)(F)F)cnc1-n1nccn1 [Cpd 292, N-(5-cyano-6-(2H-1,2,3-triazol-2-yl)pyridin-3-yl)-1-(furo[2,3-d]pyrimidin-4-yl)-5-(trifluoromethyl)-1H-pyrazole-4-carboxamide]
123	741	417	N#Cc1cc(NC(=O)c2cnn(-c3cccc4nc(N)sc34)c2C(F)(F)F)cnc1-n1nccn1 [Cpd 282, 1-(2-aminobenzo[d]thiazol-7-yl)-N-(5-cyano-6-(2H-1,2,3-triazol-2-yl)pyridin-3-yl)-5-(trifluoromethyl)-1H-pyrazole-4-carboxamide]
62	162	112	C[C@@H](O)c1ncc(-n2ncc(C(=O)Nc3cnc(-n4nccn4)c(Cl)c3)c2C(F)(F)F)c2ccccc12 (single isomer, unassigned) [Cpd 442, (*R)—N-(5-chloro-6-(2H-1,2,3-triazol-2-yl)pyridin-3-yl)-1-(1-(1-hydroxyethyl)isoquinolin-4-yl)-5-(trifluoromethyl)-1H-pyrazole-4-carboxamide]
54	123	44	Cn1cc(-n2ncc(C(=O)Nc3cnc(-n4nccn4)c(Cl)c3)c2C(F)(F)F)c2ccccc2c1=O [Cpd 423, N-(5-chloro-6-(2H-1,2,3-triazol-2-yl)pyridin-3-yl)-1-(2-methyl-1-oxo-1,2-dihydroisoquinolin-4-yl)-5-(trifluoromethyl)-1H-pyrazole-4-carboxamide]
